Measured values as given in ChEMBL document CHEMBL1201862, “PubChem BioAssay data set” (2004).
Active and inactive are the calls of the source. Cut-off read from the data, not from the text of the source, for most assays here: actives have a measured EC50 and inactives only a lower limit.

Assays:
[1] = target: Luciferin 4-monooxygenase (Photinus pyralis, UniProt P08659); experiment: firefly luciferase enzyme inhibitors, dose response, biochemical, luminescence (AID 1891)
[2] = Luminescence Cell-Based Dose Confirmation HTS to Identify Inhibitors of Platelet Dense Granule Release. [Related pubchem assays: 1663 (Primary HTS), 1678 (Summary of Project)]; format: functional
[3] = target: T1, Zinc finger protein mex-5 (Caenorhabditis elegans, UniProt Q9XUB2); experiment: MEX-5/TCR-2 RNA interaction inhibitors, dose response, biochemical, C. elegans, fluorescence polarization (AID 1960)
T1 sequence (Q9XUB2 whole entry): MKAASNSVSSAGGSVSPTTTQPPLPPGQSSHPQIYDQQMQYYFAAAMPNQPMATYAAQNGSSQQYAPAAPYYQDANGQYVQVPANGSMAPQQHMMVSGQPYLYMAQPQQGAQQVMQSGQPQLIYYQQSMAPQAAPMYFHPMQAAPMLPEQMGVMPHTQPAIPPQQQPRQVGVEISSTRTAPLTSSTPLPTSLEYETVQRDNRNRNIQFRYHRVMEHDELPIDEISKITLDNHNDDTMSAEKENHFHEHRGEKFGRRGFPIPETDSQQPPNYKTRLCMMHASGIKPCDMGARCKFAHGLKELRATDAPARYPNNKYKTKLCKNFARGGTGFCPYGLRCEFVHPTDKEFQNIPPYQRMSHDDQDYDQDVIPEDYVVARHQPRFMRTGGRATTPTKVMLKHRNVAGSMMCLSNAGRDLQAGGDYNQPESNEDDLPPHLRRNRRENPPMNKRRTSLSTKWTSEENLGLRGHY

[4] = target: T2, RNA-binding protein pos-1 (Caenorhabditis elegans, UniProt G5EF15); experiment: inhibitors of POS-1/mex-3 RNA binding, dose response, biochemical, fluorescence polarization (AID 1964);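 note: purified POS-1 fused to maltose binding protein made in E. coli; potency of compounds blocking POS-1 binding to fluorescent RNA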
T2 sequence (G5EF15 whole entry): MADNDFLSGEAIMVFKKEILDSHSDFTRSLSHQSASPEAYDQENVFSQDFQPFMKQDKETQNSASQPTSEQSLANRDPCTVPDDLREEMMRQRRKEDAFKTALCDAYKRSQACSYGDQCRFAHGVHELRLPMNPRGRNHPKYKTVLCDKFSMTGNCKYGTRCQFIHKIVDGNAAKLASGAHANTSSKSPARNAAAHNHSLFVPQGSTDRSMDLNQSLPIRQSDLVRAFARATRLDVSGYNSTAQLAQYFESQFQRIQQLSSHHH

[5] = target: T3, Ubiquitin-conjugating enzyme E2 N (Homo sapiens, UniProt P61088); format: functional;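 note: Dose-response confirmation in a TR-FRET assay detecting UBC13-driven polyubiquitin chain formation, inhibition measured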
T3 sequence (P61088 whole entry): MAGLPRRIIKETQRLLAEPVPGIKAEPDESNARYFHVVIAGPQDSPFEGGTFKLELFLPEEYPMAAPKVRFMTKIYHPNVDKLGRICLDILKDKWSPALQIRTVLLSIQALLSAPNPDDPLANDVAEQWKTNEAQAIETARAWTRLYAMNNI

[6] = NIH-3T3 fibroblast cytotoxicity, dose response, cytotoxicity control, cell-based, fluorescence, Alamar Blue, secondary assay (AID 2327); format: functional;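 note: NIH-3T3 mouse fibroblasts cultured with fluconazole at 8 µg/mL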
[7] = C. albicans growth with fluconazole, confirmation, fluorescence, retest (AID 2467); format: functional, cell-based
[8] = cytotoxicity toward DRD oncogenic fibroblasts, dose response, cell-based, non-viral oncogenic, luminescence (AID 1934); format: functional; details: Homo sapiens
BJ [9] = experiment: cytotoxicity toward BJ-TERT fibroblasts, dose response, cell-based, RAS-independent, luminescence (AID 1933); format: functional; details: Homo sapiens
BJ [10] = experiment: cells; format: functional, cell-based; details: Homo sapiens
BJ [11] = experiment: cytotoxicity toward BJ-TERT-LT-ST fibroblasts, dose response, cell-based, RAS-independent, luminescence (AID 1935); format: functional; details: Homo sapiens;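 note: BJ fibroblasts immortalized with TERT plus LT and ST oncogenes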
[12] = target: FAD-linked sulfhydryl oxidase ALR (Homo sapiens, UniProt P55789); experiment: inhibitors of human ALR sulfhydryl oxidase, dose response, biochemical, H2O2 detection, luminescence, cherry-pick (AID 493248)
[13] = target: T4, Corticotropin-releasing factor receptor 2/Corticotropin-releasing factor-binding protein (Homo sapiens, UniProt P24387+Q13324); experiment: activators of CRF receptor 2 with binding protein – uHTS hits, confirmation (AID 602473); format: functional; details: read-out: EC50_Mean
T4 sequence (Q13324 whole entry): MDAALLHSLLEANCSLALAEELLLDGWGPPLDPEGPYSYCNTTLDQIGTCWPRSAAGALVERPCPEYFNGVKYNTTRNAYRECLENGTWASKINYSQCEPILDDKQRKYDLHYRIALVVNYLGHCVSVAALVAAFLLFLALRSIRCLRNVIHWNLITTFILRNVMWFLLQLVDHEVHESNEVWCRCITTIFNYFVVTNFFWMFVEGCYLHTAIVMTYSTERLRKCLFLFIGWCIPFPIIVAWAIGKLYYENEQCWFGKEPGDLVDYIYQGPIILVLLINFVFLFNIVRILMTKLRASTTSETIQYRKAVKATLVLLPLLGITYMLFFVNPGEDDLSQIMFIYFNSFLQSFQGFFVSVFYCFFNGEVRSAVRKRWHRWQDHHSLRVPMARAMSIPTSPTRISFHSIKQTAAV
T4 sequence (P24387 whole entry): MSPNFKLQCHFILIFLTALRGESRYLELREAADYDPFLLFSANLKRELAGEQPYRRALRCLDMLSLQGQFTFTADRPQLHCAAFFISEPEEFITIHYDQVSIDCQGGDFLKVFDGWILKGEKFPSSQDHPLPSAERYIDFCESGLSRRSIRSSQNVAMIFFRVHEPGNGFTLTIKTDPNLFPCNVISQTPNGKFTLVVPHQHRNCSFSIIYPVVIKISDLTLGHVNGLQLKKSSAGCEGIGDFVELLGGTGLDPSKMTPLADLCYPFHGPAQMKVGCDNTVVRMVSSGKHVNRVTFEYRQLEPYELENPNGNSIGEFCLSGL

[14] = target: T4, Corticotropin-releasing factor receptor 2/Corticotropin-releasing factor-binding protein; experiment: Dose Response confirmation of uHTS hits for small molecule antagonists of the CRF-binding protein and CRF-R2 receptor complex.; format: functional; details: read-out: IC50_Mean
[15] = target: T5, Polyadenylate-binding protein 1 (Homo sapiens, UniProt P11940); experiment: PABP1 MLLE–PAM2 binding inhibitor potency, dose response, biochemical, fluorescence polarization, FITC-PAM2 peptide (AID 602259); format: functional; details: read-out: IC50_Mean
[16] = target: T5, Polyadenylate-binding protein 1; experiment: PABP1 MLLE–PAM2 interaction inhibitors, dose response, miRNA deadenylation inhibitor project, biochemical, fluorescence polarization, Cy5-PAM2 peptide, secondary (AID 602260); format: functional; details: read-out: IC50_Mean
[17] = Luminescence Cell-Based Dose Retest to Confirm Inhibitors of Cancer Stem Cells. [Related pubchem assays (depositor defined):AID2717, AID2721]; format: functional; details: Homo sapiens
[18] = target: T6, Calpain-2 catalytic subunit (Sus scrofa, UniProt P43367); experiment: pig calpain II inhibitor potency, dose response, biochemical, fluorogenic peptide substrate (AID 1420); format: functional
T6 sequence (P43367 whole entry): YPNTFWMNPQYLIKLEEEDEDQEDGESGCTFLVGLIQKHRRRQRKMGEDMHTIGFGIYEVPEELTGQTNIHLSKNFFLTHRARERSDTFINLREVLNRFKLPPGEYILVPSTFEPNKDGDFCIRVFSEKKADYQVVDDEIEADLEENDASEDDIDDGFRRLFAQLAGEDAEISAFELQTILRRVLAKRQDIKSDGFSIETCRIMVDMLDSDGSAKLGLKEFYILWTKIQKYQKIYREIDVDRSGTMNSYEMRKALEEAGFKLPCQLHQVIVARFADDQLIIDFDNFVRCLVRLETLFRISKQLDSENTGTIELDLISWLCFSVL

[19] = inhibitors of firefly luciferase expression or activity, dose response, H4 neuroglioma cells, luminescence (AID 1990); format: functional, cell-based
[20] = inhibitors of SNCA 5'UTR-driven reporter translation, confirmation, H4 neuroglioma cells, luminescence (AID 1988); format: functional, cell-based
[21] = Luminescence Cell-Based Dose Response HTS to Identify Inhibitors of 5'UTR Stem-Loop Driven Prion Protein mRNA Translation in H4 Neuroglioblastoma Cells. [Related pubchem assays: 1827 (Project Summary), 1813 (Primary HTS)]; format: functional

Sequence of FAD-linked sulfhydryl oxidase ALR (P55789 whole entry): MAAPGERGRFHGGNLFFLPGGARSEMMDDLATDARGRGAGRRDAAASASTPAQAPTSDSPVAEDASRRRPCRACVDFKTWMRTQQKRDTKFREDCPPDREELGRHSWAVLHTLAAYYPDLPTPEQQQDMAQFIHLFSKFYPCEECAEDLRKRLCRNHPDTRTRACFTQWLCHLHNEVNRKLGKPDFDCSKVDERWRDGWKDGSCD
Sequence of Luciferin 4-monooxygenase (P08659 whole entry): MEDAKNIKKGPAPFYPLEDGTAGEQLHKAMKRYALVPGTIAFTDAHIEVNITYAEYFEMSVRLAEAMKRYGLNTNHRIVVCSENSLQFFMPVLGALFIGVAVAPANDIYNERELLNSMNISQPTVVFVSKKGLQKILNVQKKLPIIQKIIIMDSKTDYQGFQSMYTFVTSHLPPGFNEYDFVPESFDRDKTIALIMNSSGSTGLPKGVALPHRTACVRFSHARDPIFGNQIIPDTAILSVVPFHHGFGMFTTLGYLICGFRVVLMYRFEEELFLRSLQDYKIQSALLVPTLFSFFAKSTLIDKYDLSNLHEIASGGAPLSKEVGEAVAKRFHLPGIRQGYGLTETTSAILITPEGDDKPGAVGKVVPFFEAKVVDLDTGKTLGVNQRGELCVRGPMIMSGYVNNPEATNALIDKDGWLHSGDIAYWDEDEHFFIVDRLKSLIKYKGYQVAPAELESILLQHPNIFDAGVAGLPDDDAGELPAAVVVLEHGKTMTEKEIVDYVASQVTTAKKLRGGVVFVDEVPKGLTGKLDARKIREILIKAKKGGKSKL
T5 sequence (P11940 whole entry): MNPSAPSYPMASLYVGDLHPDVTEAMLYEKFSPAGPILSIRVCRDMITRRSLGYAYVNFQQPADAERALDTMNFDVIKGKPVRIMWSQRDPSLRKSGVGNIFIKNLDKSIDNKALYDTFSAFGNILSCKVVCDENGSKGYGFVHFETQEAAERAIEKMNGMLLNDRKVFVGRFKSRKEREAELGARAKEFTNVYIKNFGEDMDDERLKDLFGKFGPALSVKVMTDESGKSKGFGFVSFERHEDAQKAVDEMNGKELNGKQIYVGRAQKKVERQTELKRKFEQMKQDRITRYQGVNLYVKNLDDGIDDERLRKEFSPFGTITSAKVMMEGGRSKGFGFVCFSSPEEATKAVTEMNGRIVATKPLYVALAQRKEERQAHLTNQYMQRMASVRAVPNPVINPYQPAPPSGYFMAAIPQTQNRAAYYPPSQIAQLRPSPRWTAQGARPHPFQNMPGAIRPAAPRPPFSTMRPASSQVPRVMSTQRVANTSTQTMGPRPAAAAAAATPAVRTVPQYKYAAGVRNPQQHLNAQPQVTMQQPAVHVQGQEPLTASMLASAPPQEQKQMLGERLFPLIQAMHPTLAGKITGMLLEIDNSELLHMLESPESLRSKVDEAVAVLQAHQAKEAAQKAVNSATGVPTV

COc1ccc(OC)c(Nc2nc(C3CC3)nc3c2nnn3Cc2ccccc2)c1
EC50 [1]: > 112 µM (not active)
EC50 [2]: > 112 µM (not active)

CS(=O)(=O)N1CCC(Oc2ccccc2C(=O)N2CCN(CC3CC3)CC2)CC1
EC50 [1]: > 112 µM (not active)
EC50 [2]: > 112 µM (not active)

CCc1ccc(N2CC(C(=O)OCC(=O)c3c(N)n(CC(C)C)c(=O)n(C)c3=O)CC2=O)cc1 (configuration not stated)
EC50 [1]: > 112 µM (not active)
EC50 [2]: > 112 µM (not active)

CC1=C(C(=O)OCc2ccccc2)C(c2ccccc2[N+](=O)[O-])NC(=O)N1C (configuration not stated)
EC50 [3]: 10.9 µM (active)
EC50 [4]: > 300 µM (not active)

COc1cccc2cc(C(C)N(CCCN3CCOCC3)C(=O)Nc3ccccc3)oc12 (configuration not stated)
EC50 [1]: > 112 µM (not active)
EC50 [2]: > 112 µM (not active)

CCN1CCN(C(=O)c2cc(-c3ccco3)nc3ccccc23)CC1
IC50 [5]: > 20 µM (inactive)

NC(=O)C1(N2CCCCC2)CCN(Cc2nc(-c3cccs3)no2)CC1
EC50 [3]: > 300 µM (not active)
EC50 [4]: > 300 µM (not active)

COc1ccc(N(C(=O)Cn2nnc3ccccc32)C(C(=O)NC(C)(C)C)c2ccc(OC)c(O)c2)cc1 (configuration not stated)
EC50 [6]: > 150 µM (inactive)
EC50 [7]: 1.62 µM (active)

Cn1c(=O)[nH]c(=O)c2c1nc(N1CCCCCC1)n2CC(N)=O
EC50 [1]: > 112 µM (not active)
EC50 [2]: > 112 µM (not active)

CC(C)CCOC(=O)C1C(c2ccccc2)C(C(=O)O)C1c1ccccc1 (configuration not stated)
EC50 [6]: > 160 µM (inconclusive)
EC50 [7]: 4.96 µM (active)

CC1CCCC(NC(=O)CSc2ncnc3ccccc23)C1C (configuration not stated)
IC50 [5]: > 20 µM (inactive)

CCc1cccc(NC(=O)CSC2=NS(=O)(=O)c3ccccc32)c1
IC50 [5]: > 20 µM (inactive)

CC(C)C[C@@H]1CN=C(N)N1C[C@@H]1CCCN1C[C@H](C)N1C[C@@H](Cc2ccccc2)N(CCc2ccc(Cl)c(Cl)c2)C1=N
IC50 [5]: > 20 µM (inactive)

CCNc1nc(Cl)nc(NC(C)C)n1 [ATRAZINE]
EC50 [1]: > 112 µM (not active)
EC50 [2]: > 112 µM (not active)

Cn1cc(S(=O)(=O)N2CCOCC2)cc1C(=O)NCCc1ccccc1
EC50 [1]: > 112 µM (not active)
EC50 [2]: > 112 µM (not active)

Cc1ccc(S(=O)(=O)CCc2nnc(NC(=O)CCl)s2)cc1C
EC50 [8]: 10.5 µM (active)
EC50 (BJ [9]): 3.06 µM (active)
EC50 (BJ [10]): 14.7 µM (active)
EC50 (BJ [11]): > 150 µM (not active)

CN(C)CCCSc1nc2ccccc2s1
AC50 [12]: 0.171 µM (active)

COc1ccccc1C(=O)Nc1ccc2c(c1)CCCN2C(=O)c1ccccc1
EC50 [1]: 0.712 µM (active)
EC50 [2]: 19.1 µM (active)

O=C(c1ccco1)N1CCN=C1SCc1ccccc1Cl
EC50 [13]: > 53 µM (inactive)
IC50 [14]: > 47.1 µM (inactive)
AC50 [12]: 0.41 µM (active)

CC(=O)Nc1ccc(SC[C@H](C)CN2CC[C@H](C(C)(C)C)CCC2=O)cc1
IC50 [15]: > 66 µM (inactive)
IC50 [16]: > 66 µM (inactive)
AC50 [17]: 1.47 µM (active)
AC50 [12]: 0.687 µM (active)

Cc1ccc(S(=O)(=O)Nc2c(C(=O)O)[nH]c3ccccc23)c(C)c1
AC50 [12]: 12.7 µM (active)

CCOC(=O)N1CCN(C(=O)Cc2ccc(-n3c(=S)[nH]c4ccccc4c3=O)cc2)CC1
IC50 [5]: > 20 µM (inactive)

COc1ccc(N2CCN(C(c3cccs3)C(C)NS(C)(=O)=O)CC2)cc1 (configuration not stated)
IC50 [18]: 5.8 µM (not active)
AC50 [12]: 1.67 µM (active)

O=C(CCS(=O)(=O)Cc1ccccc1)Nc1nnc(C(F)(F)F)s1
EC50 [6]: > 160 µM (inactive)
EC50 [7]: 0.741 µM (active)

CC(Oc1cc2oc(=O)c3c(c2cc1Cl)CCCC3)C(=O)NCc1ccncc1 (configuration not stated)
EC50 [6]: > 150 µM (inactive)
EC50 [7]: > 38 µM (not active)

COCCOC(=O)c1[nH]c2c(c1C)C(=O)CC(c1ccccc1)C2 (configuration not stated)
EC50 [8]: 2 µM (active)
EC50 (BJ [9]): 2.62 µM (inconclusive)
EC50 [19]: 8.73 µM (inconclusive)
EC50 [20]: 4.34 µM (active)
EC50 [21]: 10.6 µM (active)
EC50 (BJ [10]): 4.01 µM (active)
EC50 (BJ [11]): 1.79 µM (active)

COc1ccc(C2C(C(=O)Nc3cc(OC)c(OC)c(OC)c3)c3ccccc3C(=O)N2C)cc1 (configuration not stated)
EC50 [8]: 2.62 µM (active)
EC50 (BJ [9]): 2.43 µM (inconclusive)
EC50 (BJ [10]): 104 µM (inconclusive)
EC50 (BJ [11]): 2.56 µM (inconclusive)

N#CCC(=O)Nc1ccc(C(=O)NCc2ccccn2)cc1
AC50 [12]: 2.41 µM (active)

CC1(C)Cc2ccccc2C(N/N=C/c2ccc([N+](=O)[O-])cc2)=N1
EC50 [6]: > 150 µM (inactive)
EC50 [7]: > 38 µM (not active)
